Assay results reported in PMC7469199, “Immunosuppressive Activities of Novel PLA2 Inhibitors from Xenorhabdus hominickii, an Entomopathogenic Bacterium” (Insects, 2020).

Legend:
[1] = system: hemocyte PLA2 of S. exigua; assay: Nonspecific (total) hemocyte PLA2 activity, pyrene-labeled phospholipid fluorometric assay; format: biochemical, Spodoptera exigua; conditions: for Inhibitory activity against hemocyte PLA2 (in words): S. exigua hemocyte PLA2, extracts, fractions or synthetic compounds; for Median Inhibitory Concentrations (IC50), Total PLA2: hemocyte extract of S. exigua L5 larvae, synthetic compounds
Protocol: Hemocyte PLA2 activity was fluorometrically determined with a pyrene-labeled phospholipid substrate using a spectrofluorometer (VICTOR multi-label plate reader, PerkinElmer, Waltham, MA, USA) at excitation and emission wavelengths of 345 and 398 nm, respectively. For measuring PLA2 activity, hemolymph was collected from ~10 L5 larvae. Hemocytes and plasma were separated by centrifugation at 800× g for 3 min at 4 °C. Hemocytes were then homogenized in 500 µL of PBS with a polytron (Ultra-Turrax T8, Ika Laboratory, Funkentshort, Germany). After centrifugation at 14,000× g for 5 min at 4 °C, protein concentration of the supernatant was determined by Bradford assay using bovine serum albumin (BSA) as the standard. The reaction mixture was prepared in a 96-well microplate by adding 129 μL of 50 mM Tris buffer (pH 7.0), 2 μL of 1 M CaCl2, and 2 μL of 10% BSA into each well. A sample solution consisted of 5 μL of test bacterial metabolites and 10 μL of hemocyte enzyme extract ([…]). The plate was then incubated at room temperature for 30 min. Enzyme reaction was then initiated by adding pyrene-labeled PL substrate (2 μL) to the reaction mixture.

secretory PLA2 (sPLA2) = assay: Secretory PLA2 (sPLA2) activity; format: biochemical, Spodoptera exigua; conditions: for Median Inhibitory Concentrations (IC50), sPLA2: S. exigua, synthetic compounds; for Potency for inhibiting sPLA2 (in words): based on IC50 values
Protocol: (§1) To characterize PLA2 inhibition by test chemicals, activities of two different PLA2s [secretory PLA2 (sPLA2) and cytosolic PLA2 (cPLA2)] were assessed with methods described by Vatanparast et al..

cytosolic PLA2 (cPLA2) = assay: Cytosolic PLA2 (cPLA2) activity; format: biochemical, Spodoptera exigua; conditions: for Median Inhibitory Concentrations (IC50), cPLA2: S. exigua, synthetic compounds; for Potency for inhibiting cPLA2 (in words): based on IC50 values
Protocol: as §1

[2] = system: hemocyte phagocytosis of S. exigua; assay: Phagocytosis assay with FITC-labeled E. coli in L5 larvae; format: in vivo, Spodoptera exigua; conditions: for Inhibition of phagocytosis (in words): S. exigua hemocytes; for Median Inhibitory Concentration (IC50), Phagocytosis: injected into L5 larvae with FITC-labeled E. coli
Protocol: For in vivo phagocytosis assay, test chemical (1 µL) and FITC-labeled E. coli (5 µL, 5 × 10^4 cells/µL) were injected to L5 larva. Hemolymph (50 µL) was collected at 15 min after injection and mixed with 50 µL of ice cold ACB. After centrifugation at 700 × g for 3 min at 4 °C, the supernatant plasma was replaced with 100 µL of TC-100 insect cell culture medium (Welgene, Daegu, Korea). Hemocyte suspension (10 µL) was placed onto a slide and over laid with 10 µL glycerol (50%, v/v). Hemocytes undergoing phagocytosis were determined by fluorescence-emitting cells under a fluorescence microscope (Leica, Wetzlar, Germany) at 40× magnification. For in vitro phagocytosis, hemocyte suspension and labeled bacteria mixture (30 µL) were incubated in a dark place for 1 h at room temperature. Hemocytes were then washed three times with PBS by centrifugation at 700× g for 2 min at 4 °C and finally resuspended in TC-100 medium. This hemocyte suspension was observed under the fluorescence microscope in FITC or DIC mode after forming monolayers on glass slides.

[3] = system: hemocyte nodule formation; assay: Nodulation assay after E. coli injection in L5 larvae; format: in vivo, Spodoptera exigua; conditions: for Median Inhibitory Concentration (IC50), Nodulation: injected into L5 larvae with E. coli, nodules counted after 8 h
Protocol: To assess nodule formation, immune challenge was performed by injecting 3 µL of Escherichia coli Top10 (10^4 cells/larva) (Invitrogen, Madison, WI, USA) through the abdominal proleg of L5 larvae using a microsyringe (Hamilton, Reno, NV, USA). After incubating at 25 °C for 8 h, test insects were dissected to count the number of melanized nodules under a stereo microscope (Stemi SV11, Zeiss, Jena, Germany) at 50× magnification. For chemical test, 1 µL aliquot of test chemical at different concentrations was injected into each larva along with E. coli. AA was injected at 10 μg per larva. Each treatment was independently replicated five times.

Sf9 cells = assay: Cytotoxicity test (MTT); format: cell-based; conditions: for Cytotoxicity (MIC, minimum inhibitory concentration): MTT, 24 h at 28 °C
Protocol: Cytotoxicity of each secondary metabolite was evaluated by 3-(4,5 dimethylthiazol-2-yl)-2,5-diphenyl tetrazolium bromide (MTT) assay according to the method described by Mollah et al.. with a slight modification. Briefly, Sf9 cells (1.2 × 10^4 cells in 200 μL of TC-100 medium) were seeded into each 96-well. After adding each test chemical (2.5 μL in DMSO), the plate was incubated at 28 °C for 24 h. Control cells were treated with 2.5 μL of DMSO. After 24 h incubation, 10 μL of MTT (5 mg/mL in PBS) was added to each well and cells were cultured for another 4 h at 28 °C. Formazan granules formed in viable cells were dissolved in 50 μL of DMSO. Absorbance was then measured at 540 nm using a microplate reader (Victor Multilabel Plate Reader, PerkinElmer, Waltham, MA, USA).

S. exigua larvae [4] = assay: Insecticidal activity by injection; format: in vivo, Spodoptera exigua; conditions: for Insecticidal Activities, Injection: median lethal dose by Probit analysis, S. exigua larvae
Protocol: All data for continuous variables were subjected to one-way analysis of variance (ANOVA) using PROG GLM in SAS program. Mortality data were subjected to arcsine transformation and used for ANOVA. Means were compared with the least significant difference (LSD) test at Type I error of 0.05. Median toxicity values such as median lethal dose (LD50), median lethal concentration (LC50), median lethal time (LT50), and median inhibition concentrations (IC50) were calculated by Probit analysis using EPA Probit Analysis Program, ver. 1.5 (U.S. Environmental Protection Agency, Washington, DC, USA). […]

S. exigua larvae [5] = assay: Feeding toxicity, leaf-dipping method; format: in vivo, Spodoptera exigua; conditions: for Insecticidal Activities, Feeding: median lethal concentration by Probit analysis, leaf-dipping
Protocol: (§2) For the virulence test of X. hominickii, 24 h-cultured cells (10^8 cfu/mL) were diluted with sterile PBS. After surface sterilization with 95% ethanol, each L5 larva was injected with 1 µL of test compound (1 µg/larva) along with bacterial suspension (10^2 cfu/larva). Injection was performed through the first abdominal proleg using a micro syringe. Injected larvae were incubated at room temperature individually in 9 cm Petri dishes. For oral toxicity assay of B. thuringiensis, a small piece (2 × 2 cm) of Chinese cabbage was dipped in 500 ppm of Bt or a mixture of Bt (500 ppm) with 500 ppm of test chemical for 5 min. After a brief (5 min) drying under a dark condition, the treated leaf was supplied to individual test larva in 9 cm Petri dish for 24 h at room temperature. After 24 h, larvae were fed with fresh cabbage leaves. Each treatment was replicated three times with 10 larvae per replication. […] Larvae were considered dead if they were unable to move in a coordinated manner when prodded with a blunt probe.
All data for continuous variables were subjected to one-way analysis of variance (ANOVA) using PROG GLM in SAS program. Mortality data were subjected to arcsine transformation and used for ANOVA. Means were compared with the least significant difference (LSD) test at Type I error of 0.05. Median toxicity values such as median lethal dose (LD50), median lethal concentration (LC50), median lethal time (LT50), and median inhibition concentrations (IC50) were calculated by Probit analysis using EPA Probit Analysis Program, ver. 1.5 (U.S. Environmental Protection Agency, Washington, DC, USA).
These compounds were also tested for their feeding toxicities using a leaf-dipping method.

mammals = conditions: cited from earlier work
S. exigua larvae [6] = assay: Effect on pathogenicity of X. hominickii (co-injection); format: in vivo, Spodoptera exigua; conditions: L5 larvae injected with Xh 10^2 cfu/larva along with inhibitor (5 µg/larva Fig. 7A; 2 µg/larva Fig. S6); 4 days after treatment
Protocol: as §2, with “After surface sterilization with 95% ethanol, each L5 larva was injected with 1 µL of test compound (1 µg/larva) along with bacterial suspension (10^2 cfu/larva).” left out

S. exigua larvae [7] = assay: Effect on pathogenicity of Bacillus thuringiensis (oral, leaf dipping); format: in vivo, Spodoptera exigua; conditions: cabbage leaf dipped in Bt 500 ppm mixed with inhibitor 500 ppm; 4 days after treatment
Protocol: as §2

Row | SMILES | Inhibitory activity against hemocyte PLA2 (in words) [1] | Median Inhibitory Concentrations (IC50), Total PLA2 [1] | Median Inhibitory Concentrations (IC50), sPLA2 (secretory PLA2 (sPLA2)) | Potency for inhibiting sPLA2 (in words) (secretory PLA2 (sPLA2)) | Median Inhibitory Concentrations (IC50), cPLA2 (cytosolic PLA2 (cPLA2)) | Potency for inhibiting cPLA2 (in words) (cytosolic PLA2 (cPLA2)) | Inhibition of phagocytosis (in words) [2] | Median Inhibitory Concentration (IC50), Phagocytosis [2] | Median Inhibitory Concentration (IC50), Nodulation [3] | Cytotoxicity (MIC, minimum inhibitory concentration) (Sf9 cells) | Insecticidal Activities, Injection (S. exigua larvae [4]) | Insecticidal Activities, Feeding (S. exigua larvae [5]) | Toxicity to mammals (in words) (mammals) | Inhibition of nodule formation (in words) ([3]; S. exigua L5 larvae, E. coli challenge) | Concentration inducing cytotoxicity (Sf9 cells) | Killing of larvae after injection (in words) (S. exigua larvae [4]; individually injected to S. exigua larvae) | Feeding (oral) toxicity (in words) (S. exigua larvae [5]; leaf-dipping method) | Effect on X. hominickii pathogenicity / insecticidal activity (S. exigua larvae [6]) | Effect on B. thuringiensis insecticidal activity (S. exigua larvae [7])
1 | N#Cc1ccccc1C(=O)O [CBA, o-cyanobenzoic acid] | least potent | 0.86 ± 0.02 a µg/mL | 1.11 ± 0.11 a µg/mL | least potent | 0.38 ± 0.03 a µg/mL | least potent | least potent | 32.50 ± 2.35 a ng/larva | 2.50 ± 0.22 a ng/larva | 0.50 ± 0.02 c µg/mL | 54.96 ± 4.03 a µg/larva | 2850.65 ± 80.68 c µg/mL | – | – | – | – | – | – | –
2 | CCCCCCCCOC(=O)c1ccc(C(=O)OCCCCCCCC)cc1 [DOTP, dioctyl terephthalate] | – | 0.16 ± 0.006 cd µg/mL | 0.56 ± 0.05 c µg/mL | – | 0.06 ± 0.005 e µg/mL | highly potent | – | 8.70 ± 0.89 b ng/larva | 1.10 ± 0.07 b ng/larva | 0.50 ± 0.01 c µg/mL | 38.89 ± 3.21 b µg/larva | 3220.45 ± 90.91 b µg/mL | relatively nontoxic | – | – | – | – | – | –
3 | CCCCCCCCCCCCCCCCCCCCCC [DS, docosane] | – | 0.81 ± 0.04 b µg/mL | 1.22 ± 0.15 a µg/mL | least potent | 0.32 ± 0.02 b µg/mL | – | – | 8.40 ± 0.68 b ng/larva | 1.11 ± 0.09 b ng/larva | 1.0 ± 0.03 a µg/mL | 49.54 ± 4.55 a µg/larva | 3554.0 ± 100.18 a µg/mL | – | – | – | – | – | – | –
4 | CCCCC(CC)CO (stereo not drawn) [EH, 2-ethyl-1-hexanol] | – | 0.14 ± 0.01 µg·days/mL | 0.05 ± 0.004 f µg/mL | highly potent | 0.11 ± 0.01 µg·days/mL | – | – | – | 0.40 ± 0.03 e ng/larva | 0.20 ± 0.02 e µg/mL | 29.90 ± 3.05 c µg/larva | 2456.35 ± 50.88 e µg/mL | – | – | – | – | – | – | –
5 | CCOc1cc(O)ccc1OC [EMP, 3-ethoxy-4-methoxyphenol] | most potent | 0.04 ± 0.02 e µg/mL | 0.03 ± 0.005 f µg/mL | highly potent | 0.05 ± 0.004 ef µg/mL | highly potent | highly potent | 0.20 ± 0.03 g ng/larva | 0.20 ± 0.02 f ng/larva | 0.1 ± 0.01 f µg/mL | 18.95 ± 2.61 d µg/larva | 2100.34 ± 40.19 f µg/mL | – | high potency | less than 1 µg/mL | most potent | most potent | significantly (p < 0.05) increased | significantly (p < 0.05) increased
